The record followed here is patent US11465980B2, “6-membered aza-heterocyclic containing delta-opioid receptor modulating compounds, methods of using and making the same” (Trevena, Inc., priority 2015, dated 2022).

Assay [1] has as its system mouse. Briefly: Tactile allodynia produced by intraplantar Freund's Complete Adjuvant, von Frey (mouse). The format is in vivo. As to conditions: route po, p < 0.05 vs vehicle. As for the experimental part: (§1) Animals were acclimated to the vivarium for at least 48 hr prior to behavioral testing. Inflammation was induced for both rodent species with the administration of an intraplantar (subcutaneous injection into the plantar surface of the hind paw, i.pl.) injection of 0.10 ml Freund's Complete Adjuvant (FCA).
For mouse studies, the experiments were conducted 48 hours after FCA administration. Tactile allodynia was measured using a series of von Frey monofilaments. These filaments are bendable, plastic and intended to poke, not penetrate, the skin. Animals were placed in a Plexiglas chamber (approximately 10 cm×20 cm×25 cm) and allowed to habituate for 5-10 minutes. The chamber was positioned on top of a mesh screen so that von Frey monofilaments can be presented to the plantar surface of the hind paw that is inflamed. The measurement of tactile sensitivity for the injected hind paw is obtained using the up/down method (LaBuda and Little, 2005, J Neurosci. Methods, 144, 175) with […]. Each trial will start with a von Frey force of 0.6 grams delivered to the hind paw for approximately 1-2 seconds. If there was no withdrawal response, the next higher force was be delivered. If there was a response, the next lower force was delivered. This procedure was performed until no response was made at the highest force (2 grams) or until four stimuli are administered following the initial response. The 50% paw withdrawal threshold for the hind paw was be calculated using the following formula: [Xth]log=[vFi]log+ky where [vFr] is the force of the last von Frey used, k is the average interval (in log units) between the von Frey monofilaments, and y is a value that depends upon the pattern of withdrawal responses (Dixon, Annual Review Pharmacol Toxicol, 1980, 20, 441).

In assay [2] the test system is adult male C57 mice. As to the kind of experiment: Tail suspension test (TST). The format is in vivo, mouse. As to conditions: Mus musculus; route sc, po; p < 0.05 compared to vehicle-treated mice; read-out: Active TST Dose. The procedure:
The experiments were performed using adult male C57 mice (6-10 weeks of age, 20-30 g, Hilltop Lab, PA). The mice were housed in standard rodent cages with stainless steel mesh wire bar lids in groups of 4 with controlled temperature and light cycle (6:00 a.m.-6:00 p.m.). Animals were given free access to food (Harlan Teklad Global 18% protein (Madison, Wis.)) and water during a minimum 2-day habituation period to the laboratory. Animals that were used in the study were handled, housed, and sacrificed (using compressed CO2) in accord with the current NIH guidelines regarding the use and care of laboratory animals, and all applicable local, state, and federal regulations and guidelines. Animals are identified by cage number, and by markings applied to the proximal tip of the tail using a permanent marker. Group sizes (n=8, and therefore 30-50 animals per study) provide reliable estimates of treatment effects, and this species and strain of mouse has been recognized as appropriate for pharmacology studies.
To measure efficacy of the compounds the compounds were tested using a tail suspension test. The tail suspension test is a behavioral test used to evaluate the efficacy of antidepressant drugs in rodents. In the TST, mice (n=8/group) were suspended by the tail with tape approximately 30-50 cm above the lab bench. Mice are positioned such that the base of their tail is perpendicular to the lab bench. Each mouse is given 1 trial that last 6 minutes. The total duration of immobility is calculated as the percentage of time that the mouse is immobile. The duration of immobility is the main parameter measured. This is calculated from the cumulated time during which the animals is absent of initiated movements including passive swaying. When antidepressant drugs are administered, immobility is decreased by a variety of classes of antidepressant drugs. One or more of the compounds show antidepressant activity.

The test system of assay [3] is mouse. Briefly: Tactile allodynia produced by nitroglycerin (migraine model, mouse). As to conditions: route sc, nitroglycerin 10 mg/kg ip, p < 0.05 vs vehicle, read-out: Active Migraine Doses. The format is in vivo. The procedure: Compounds were tested for efficacy in rodent models of nitroglycerine induced migraine. In this model both rats and mice can be induced to have a behavioral response consistent with the progression of a migraine attack by the intraperitoneal injection of nitroglycerin. In this test mice or rats (n=8/group) are given an intraperitoneal injection of nitroglycerin at 10 mg/kg. After 90 minutes the animals are subcutaneously dosed with test compound. A measurement of mechanical allodynia will be obtained using the up/down method with seven von Frey monofilaments. There is a specific series used for rat and mouse. Each monofilament is delivered to the hind paw for approximately 1-2 seconds. If there is a response, the next lower force will be delivered. This procedure will be performed until no response was made at the highest force or until four stimuli are administered following the initial response. The 50% paw withdrawal threshold for the hind paw will be calculated using the following formula: [Xth]log=[vFr]log+ky where [vFr] is the force of the last von Frey used, k is the average interval (in log units) between the von Frey monofilaments, and y is a value that depends upon the pattern of withdrawal responses. Testing for tactile sensitivity will be performed and a withdrawal value will be assigned as the tactile sensitivity (expressed in grams of force required to elicit a response) for the injected paw for each animal. Data is presented as the mean grams required to produce a hind paw withdrawal from the von Frey stimulus. […] Compounds found to be effective in this model of migraine at the doses indicated, although other doses may also be active. Other compounds described herein were not necessarily tested, but are expected to be able have some level of efficacy.

Assay [4] deals with rat. Briefly: Mechanical allodynia after Freund's Complete Adjuvant, Randall-Selitto (rat). As to conditions: route sc, p < 0.05 vs vehicle. The format is in vivo. The procedure: as §1
For rat studies, the experiments were conducted 24 hours after CFA administration. Rats are tested for mechanical allodynia in a Randall-Selitto apparatus. The inflamed paw is put on a pedestal and a pointed force of increasing intensity (0 to 250 grams) is applied to the paw. When the animal struggles to withdraw from the force the test is stopped and the force to induce that struggle is recorded. Data may be presented as mean grams of force to withdrawal or a percentage of the maximum possible effect.

For assay [5], the system named is rat. Briefly: Tactile allodynia produced by nitroglycerin (migraine model, rat). The format is in vivo. To be noted: route sc, nitroglycerin 10 mg/kg ip, p < 0.05 vs vehicle.
Assay [6] has as its system rat. Briefly: Hemilesioned rat 6-OHDA model (bar, drag, rotarod tests). To be noted: route sc, p < 0.05 vs vehicle. The format is in vivo. The procedure:
Compounds were tested for efficacy in reversing akinesia and bradykinesia in two well accepted rodent Parkinson's disease (PD) models; the haloperidol-induced rat catalepsy and 6-OHDA rat hemiparkinson lesion models.
In the hemilesioned rat 6-OHDA model, the effect of compound on the akinetic response to lesioning of the contralateral forepaw in the bar test and stepping activity as measured by the drag test were determined. […] This assay examines efficacy for reversing PD motor symptoms (i.e. akinesia/bradykinesia and gait abilities). The behavioral readouts will include immobility time in the bar test (akinesia), number of steps in the drag test (akinesia/bradykinesia) and time spent on rod in the rotarod test (overall gait ability, gross motor behavior). Compounds were administered subcutaneously and efficacy was evaluated between 30 and 90 min post dose.
On the technique in general: Falling from the rotarod earlier than controls is read as motor impairment.

The target of assay [7] is T1, delta-opioid receptor (Accession NP_000902) (Homo sapiens, UniProt P41143). As to the kind of experiment: cAMP assay (receptor G-protein mediated response, HTRF). The class given is cell-based. As for the experimental part: (§2) Plasmids encoding delta-opioid receptor (Accession NP_000902), mu-opioid receptor (Accession NP_000905) and kappa-opioid receptor (Accession Assession NP_000903) were generated in the pCMV-Prolink backbone and transfected into an EA-arrestin parental human embryonic kidney (HEK-293) cell line from DiscoveRx Corporation. Clonal stable lines were subsequently selected under G418.
T1 sequence (P41143 whole entry): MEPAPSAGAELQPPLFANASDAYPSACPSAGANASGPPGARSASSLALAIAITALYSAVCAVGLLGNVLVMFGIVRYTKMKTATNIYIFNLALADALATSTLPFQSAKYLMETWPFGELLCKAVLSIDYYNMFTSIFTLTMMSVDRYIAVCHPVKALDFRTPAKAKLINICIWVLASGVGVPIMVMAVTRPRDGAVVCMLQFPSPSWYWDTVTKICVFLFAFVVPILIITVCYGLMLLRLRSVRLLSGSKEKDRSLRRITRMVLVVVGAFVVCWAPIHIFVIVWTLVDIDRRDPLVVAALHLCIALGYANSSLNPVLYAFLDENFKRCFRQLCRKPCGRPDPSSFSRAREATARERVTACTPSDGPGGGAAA
Cell lines were grown adherently in Minimum Essential Media (Cellgro cat #10-010-CM) containing 10% fetal bovine serum (Hyclone cat #SH30071.03), 4 mM glutamine (Cellgro cat #25-005-CI), 150 ug/ml hygromycin B (Cellgro cat #30-240-CR), 150 ug/ml G418 (Cellgro cat #30-234-CR), and 50 u/50 ug penicillin/streptomycin (Lonza cat #17-603E). […]
Receptor G-protein mediated responses were determined by measuring changes in intracellular cAMP using CisBio HTRF cAMP HiRange kit (cat #62AM6PEJ) based on time-resolved fluorescence resonance energy transfer (TR-FRET). […] Following a 30 minute incubation at 37° C. the components of the cAMP HiRange kit were added as directed and the plates were read after 1 hour on a BMG PheraStar plate reader. Responses were measured as the ratio of fluorescence at 665 nm/620 nm per manufacturer's instructions.
For orientation: Changes in cAMP serve as a functional read-out for many G protein-coupled receptors.

In assay [8] the target is T1, delta-opioid receptor (Accession NP_000902). As to the kind of experiment: β-arrestin recruitment assay (DiscoveRx PathHunter). The class given is cell-based. As to conditions: HEK-293 cells. The procedure:
as §2
Cell lines were grown adherently in Minimum Essential Media (Cellgro cat #10-010-CM) containing 10% fetal bovine serum (Hyclone cat #SH30071.03), 4 mM glutamine (Cellgro cat #25-005-CI), 150 ug/ml hygromycin B (Cellgro cat #30-240-CR), 150 ug/ml G418 (Cellgro cat #30-234-CR), and 50 u/50 ug penicillin/streptomycin (Lonza cat #17-603E). Prior to the assay cells were removed from the flasks with CellStripper (Cellgro cat #25-056-CI), repeatedly pipetted to disperse cells, and spun at low speed for 5 min at room temperature. Cells were then resuspended at 250,000 cells/ml in growth media and plated at 5,000 cells/well in 384 well plates (Greiner part #784080). […]
Receptor mediated beta-arrestin recruitment was determined using the DiscoveRx β-arrestin PathHunter Detection kit (cat #93-0001). […] Following a 60 minute incubation at 37° C. the components of the DiscoveRx β-arrestin PathHunter Detection kit were added as directed and the plates were read after 1 hour on a BMG PheraStar plate reader.

`COc1ccc([C@@H]2CCN(CCc3ccccc3)[C@H](C)[C@H]2COc2ccc3c(c2)C(=O)NC3)cc1` [Compound B0707, (−)-6-{[(trans, trans)-4-(4-methoxyphenyl)-2-methyl-1-(2-phenylethy)piperidin-3-yl]methoxy}-2,3-dihydro-1H-isoindol-1-one]: the “Active CFA Dose” value is given as no more than 30 mg/kg in assay [1] and no more than 10 mg/kg in assay [4]. Also, the minimal effective dose in assay [2] is no more than 30 mg/kg; in assay [3], no more than 10 mg/kg. In addition, the “Active Migraine Doses” value in assay [5] is no more than 10 mg/kg. Moreover, in assay [6], the “Active Dose (hemilesioned rat 6-OHDA model)” value was no more than 30 mg/kg.
`Fc1ccc([C@@H]2CCNC[C@H]2COc2ccc3c(c2)OCO3)cc1` [Paroxetine]: the “hDOR G Span” value in assay [7] (G-protein mediated cAMP response, HEK-293 cells) is less than 100. In assay [7] (also tested at mu and kappa-opioid receptor), the “selectivity for the delta-opioid receptor” value is “non-selectivity”. For the same molecule, the “hDOR B Span” value in assay [8] was less than 100. Further, the EC50 in assay [8] (read-out: hDOR B pEC50 (converted)) is greater than 1000 nM.
